# Square brackets hold non-standard residues; d marks the D form. Peptide text beside a SMILES is read from it. * marks the point of attachment. Dolaproine = CO[C@@H]([C@@H]1CCCN1)[C@@H](C)C(=O)O; Dil = CC[C@H](C)[C@H](NC)[C@@H](CC(=O)O)OC; X1 = C[C@@H](N*)[C@@H](O)c1ccccc1; NMeV = CN[C@H](C(=O)O)C(C)C
# System: OVCAR3 ovarian cancer model
# Experiment: M825 and M825-MMAE in OVCAR3 ovarian cancer model
# Type: in vivo, mouse
# Details: 0.2 mg/kg, equivalent to maximum MMAE in the 10 mg/kg ADC group
# Procedure: Treatment initiated when tumor volume reached approximately 120 mm^3. M825 was given i.v. at 10 mg/kg and M825-MMAE was given i.v. at 1, 3, or 10 mg/kg, 2 times per week for 3.5 weeks. […] The 10 mg/kg ADC group was redosed on Day 56, 2 times per week.
compound,measurement,value
CC[C@H](C)[C@@H]([C@@H](CC(=O)N1CCC[C@H]1[C@H](OC)[C@@H](C)C(=O)N[C@H](C)[C@@H](O)c1ccccc1)OC)N(C)C(=O)[C@@H](NC(=O)[C@@H](NC)C(C)C)C(C)C [MMAE] (H-[NMeV]V[Dil][Dolaproine]-X1),tumor growth,No effect
